Measured values: patent US9321762B2, “Quinazoline compounds, method for preparing the same and use thereof” (DEVELOPMENT CENTER FOR BIOTECHNOLOGY, priority 2013, dated 2016)
Where two headings read alike, the source gives them in different places.

Tests used:
[1] = molecular target: T1, B-Raf kinase (Homo sapiens, UniProt P15056); experiment: B-Raf kinase assay ([33P] incorporation into MEK1(K97R)); format: biochemical; settings: class symbols; 8 μM ATP; read-out: IC50 against B-Raf kinase
T1 construct: purchased Upstate Biotechnology
T1 sequence (P15056 whole entry): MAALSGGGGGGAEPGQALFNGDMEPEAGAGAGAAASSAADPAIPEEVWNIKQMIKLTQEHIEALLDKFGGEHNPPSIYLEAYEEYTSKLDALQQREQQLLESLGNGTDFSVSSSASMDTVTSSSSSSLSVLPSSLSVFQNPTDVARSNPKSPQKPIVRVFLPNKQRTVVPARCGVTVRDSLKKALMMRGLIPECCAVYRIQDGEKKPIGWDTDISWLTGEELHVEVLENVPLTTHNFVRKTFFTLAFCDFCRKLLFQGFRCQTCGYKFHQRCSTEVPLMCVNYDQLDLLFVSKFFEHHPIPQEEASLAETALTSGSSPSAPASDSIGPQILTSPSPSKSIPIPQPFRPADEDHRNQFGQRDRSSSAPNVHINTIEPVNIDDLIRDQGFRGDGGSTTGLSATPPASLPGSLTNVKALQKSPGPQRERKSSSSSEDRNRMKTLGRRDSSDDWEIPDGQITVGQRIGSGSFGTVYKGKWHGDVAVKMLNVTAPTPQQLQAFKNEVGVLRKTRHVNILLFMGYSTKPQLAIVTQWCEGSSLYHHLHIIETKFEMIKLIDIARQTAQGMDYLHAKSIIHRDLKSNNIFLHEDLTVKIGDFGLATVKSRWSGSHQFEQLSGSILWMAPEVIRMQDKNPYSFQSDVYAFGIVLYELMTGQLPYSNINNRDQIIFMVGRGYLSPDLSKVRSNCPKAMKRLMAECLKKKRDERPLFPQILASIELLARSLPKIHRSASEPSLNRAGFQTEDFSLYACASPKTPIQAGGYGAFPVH
Protocol: (§1) Inhibition of kinase activity by a test compound disclosed herein was estimated by quantifying the amount of [^33P] incorporation of a substrate in the presence of the test compound. Standard assay conditions were 5 ng of recombinant B-Raf kinase (Upstate Biotechnology) with 500 ng MEK1(K97R) in assay buffer (8 μM ATP, 0.5 μCi [^33P]ATP (specific activity 3000 Ci/mmol, PerkinElmer), 50 mM Tris/HCl (pH7.5), and 1 mM EGTA, 1 mM Na3VO4, 1% 2-mercaptoethanol, 0.1% Brij 35, and 0.2 mg/ml BSA) in a final volume of 25 μL. Reactions were incubated at 30° C. for 30 min and stopped by adding 3% phosphoric acid, harvested onto a 96-well GF/B UniFilter (PerkinElmer) using a unifilter harvester (PerkinElmer), and counted with a TopCount microplate scintillation counter (PerkinElmer). The IC50 values of inhibitors were determined after carrying out assays at 3-fold serially diluted concentrations of each compound in duplication. The results were analyzed using linear regression software (GraphPad Prism 4; GraphPad Software Inc.).

[2] = molecular target: T2, B-Raf(V600E) kinase (Homo sapiens, UniProt P15056, V600E); experiment: B-Raf(V600E) kinase assay ([33P] incorporation into MEK1(K97R)); format: biochemical; settings: class symbols; 8 μM ATP; read-out: IC50 against B-Raf(V600E) kinase
T2 construct: purchased Upstate Biotechnology
T2 sequence (P15056 whole entry V600E): as the sequence (P15056 whole entry) above, with V600E counted along it
Protocol: as §1, with “B-Raf(V600E)” for “B-Raf”, “MEK1 (K97R)” for “MEK1(K97R)”, “[^33P] ATP” for “[^33P]ATP”, “BSA), and the test compound (diluted with 4% DMSO) or DMSO alone (as a control)” for “BSA)”

[3] = molecular target: T3, C-Raf kinase (Homo sapiens, UniProt P04049); experiment: C-Raf kinase assay ([33P] incorporation into MEK1(K97R)); format: biochemical; settings: class symbols; 8 μM ATP; read-out: IC50 against C-Raf kinase
T3 construct: purchased Upstate Biotechnology
T3 sequence (P04049 whole entry): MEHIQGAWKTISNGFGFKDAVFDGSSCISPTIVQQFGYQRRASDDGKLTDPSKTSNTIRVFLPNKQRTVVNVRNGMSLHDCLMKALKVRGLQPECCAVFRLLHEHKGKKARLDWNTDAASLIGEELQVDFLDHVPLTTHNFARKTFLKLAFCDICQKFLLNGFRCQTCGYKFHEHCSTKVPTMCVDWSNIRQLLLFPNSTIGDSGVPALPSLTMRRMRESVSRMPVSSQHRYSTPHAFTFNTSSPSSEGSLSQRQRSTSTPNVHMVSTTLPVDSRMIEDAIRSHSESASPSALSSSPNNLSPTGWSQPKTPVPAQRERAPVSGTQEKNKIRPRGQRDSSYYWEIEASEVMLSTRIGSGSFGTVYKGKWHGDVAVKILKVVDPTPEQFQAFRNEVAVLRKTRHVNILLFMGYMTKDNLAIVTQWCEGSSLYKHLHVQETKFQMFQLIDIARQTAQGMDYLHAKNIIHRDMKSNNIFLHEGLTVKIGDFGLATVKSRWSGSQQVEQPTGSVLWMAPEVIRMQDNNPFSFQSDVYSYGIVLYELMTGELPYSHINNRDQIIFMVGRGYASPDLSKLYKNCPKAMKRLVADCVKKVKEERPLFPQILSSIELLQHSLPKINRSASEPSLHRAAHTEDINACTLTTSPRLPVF
Protocol: as §1, with “were 2” for “were 5”, “recombinant C-Raf” for “recombinant B-Raf”, “ng MEK1 (K97R)” for “ng MEK1(K97R)”, “μCi [^33P] ATP” for “μCi [^33P]ATP”, “mg/ml BSA), and the test compound (diluted with 4% DMSO) or DMSO alone (as a control)” for “mg/ml BSA)”

[4] = molecular target: T4, VEGFR2 kinase (Homo sapiens, UniProt P35968); experiment: VEGFR2 radiometric kinase assay; format: biochemical; settings: given as bound; 100 μM ATP; read-out: Inhibition activity, IC50 VEGFR2
T4 construct: VEGFR2 kinase domain alone, Millipore; purchased Millipore
T4 sequence (P35968 834-1162 limits assumed): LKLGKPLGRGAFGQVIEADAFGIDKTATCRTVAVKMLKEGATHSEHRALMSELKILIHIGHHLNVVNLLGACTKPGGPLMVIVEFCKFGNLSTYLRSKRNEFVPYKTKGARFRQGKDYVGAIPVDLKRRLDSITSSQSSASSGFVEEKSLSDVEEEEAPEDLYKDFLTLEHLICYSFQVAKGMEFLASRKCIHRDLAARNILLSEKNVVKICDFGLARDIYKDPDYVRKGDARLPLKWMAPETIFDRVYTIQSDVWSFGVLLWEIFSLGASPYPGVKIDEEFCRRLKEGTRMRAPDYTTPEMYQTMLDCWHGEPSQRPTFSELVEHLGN
Protocol: (§2) The inhibitory activity against VEGFR2 or EGFR was determined by radiometric kinase assay. The experimental condition for VEGFR2 kinase assay was 6.25 ng of recombinant VEGFR2 kinase (VEGFR2 kinase domain alone, Millipore), 5 μg of substrate Poly(Glu-Tyr) (4:1, Sigma), kinase reaction buffer (20 mM MOPS pH 7.0, 1 mM EDTA, 5% glycerol, 0.01% Brij-35, 0.1% β-mercaptoethanol, 1 mg/mL BSA, 100 μM ATP, and 0.1 μCi per well [^33P] ATP (specific activity 3000 Ci/mmol, PerkinElmer)), and the test compound (diluted with 4% DMSO) or DMSO alone (as a control) in a final volume of 25 μL. Reactions were incubated at 30° C. for 30 min and stopped by adding 3% phosphoric acid, harvested onto a 96-well GF/B UniFilter (PerkinElmer) using a unifilter harvester (PerkinElmer), and counted with a TopCount microplate scintillation counter (PerkinElmer).
(§3) Results of inhibition activity against VEGFR2 and EGFR kinases by the selected compounds, which have IC50 values on B-Raf kinase <300 nM, are summarized in Table 6.

[5] = molecular target: T5, EGFR kinase (Homo sapiens, UniProt P00533); experiment: EGFR radiometric kinase assay; format: biochemical; settings: 100 μM ATP, read-out: Inhibition activity, IC50 EGFR
T5 construct: EGFR kinase domain alone, Millipore; purchased Millipore
T5 sequence (P00533 712-979 limits assumed): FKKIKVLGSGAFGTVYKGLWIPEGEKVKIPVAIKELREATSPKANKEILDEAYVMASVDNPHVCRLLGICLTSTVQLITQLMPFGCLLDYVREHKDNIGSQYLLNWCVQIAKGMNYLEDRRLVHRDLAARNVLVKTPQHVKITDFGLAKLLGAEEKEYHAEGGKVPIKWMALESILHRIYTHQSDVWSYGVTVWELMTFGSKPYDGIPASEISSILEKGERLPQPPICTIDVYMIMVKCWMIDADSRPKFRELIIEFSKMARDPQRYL
Protocol: as §2
The experimental condition for EGFR kinase assay was 25 ng of EGFR kinase (EGFR kinase domain alone, Millipore), 3 μg of the substrate poly(Glu-Tyr), (Sigma), kinase reaction buffer (10 mM MOPS pH 7.0, 0.3 mM EDTA, 0.5% glycerol, 0.001% Brij-35, 10 mM MnCl2, 0.1 mg/ml BSA, 100 μM ATP, and 0.1 μCi per well [^33P]ATP (specific activity 3000 Ci/mmol, PerkinElmer)), and the test compound (diluted with 4% DMSO) or DMSO (as a control) in a final volume of 25 μL. Reactions were incubated at 30° C. for 30 min and stopped by adding 3% phosphoric acid, harvested onto a 96-well GF/B UniFilter (PerkinElmer) using a unifilter harvester (PerkinElmer), and counted with a TopCount microplate scintillation counter (PerkinElmer).
as §3

[6] = tested on: A375 melanoma cells and COLO205 colon cancer cells; experiment: Cell proliferation assay (CellTiter-96); format: cell-based; settings: Homo sapiens; A375 or COLO205, 72 hours treatment; read-out: Cytotoxicity IC50 for A375 or COLO205
Protocol: The anti-proliferative activities of compounds of formula (I) against B-Raf(V600E) mutant human cancer cell lines, A375 melanoma cells and COLO205 colon cancer cells, were measured using the CellTiter™-96 assay kit (Promega) following the manufacturer's instructions. In brief, the cells were maintained in DMEM containing 10% FCS and incubated at 37° C. in 5% CO2 atmosphere. Cells were plated at a density of 2,000 cells/well on a 96-well plate and incubated for 24 h. Then, these cells were treated with different concentrations of the test compounds and incubated for another 72 hours. At the end of the incubation, CellTiter™-96 Aqueous One Solution Reagent (Promega) was added and incubated for another 4.0 hours. Cell viability was determined by measuring absorbance at 490 nm using EMax® microplate reader (Molecular Devices). Data were processed and analyzed using GraphPad Prism.

| SMILES | IC50 [1] [nM] | IC50 [2] [nM] | IC50 [3] [nM] | IC50 [4] [nM] | IC50 ([5]; class symbols) [nM] | IC50 [6] [nM] | IC50 ([5]; given as bound) [nM] |
| --- | --- | --- | --- | --- | --- | --- | --- |
| CCCS(=O)(=O)Nc1ccc(F)c(Nc2ncnc3ccc(-c4cccc(F)n4)cc23)c1F [compound 36, N-(2,4-difluoro-3-(6-(6-fluoropyridin-2-yl)-quinazolin-4-ylamino)phenyl)propane-1-sulfonamide] | < 300 | < 300 | 300 to 1000 | > 3000 | 1000 to 3000 | < 2000 |  |
| CCCS(=O)(=O)Nc1ccc(F)c(Nc2ncnc3ccc(-c4cccc(OC)n4)cc23)c1F [compound 37, N-(2,4-difluoro-3-(6-(6-methoxypyridin-2-yl)quinazolin-4-ylamino)phenyl)propane-1-sulfonamide] | < 300 | < 300 | 300 to 1000 | > 3000 | 300 to 1000 | < 2000 |  |
| CCCS(=O)(=O)Nc1ccc(F)c(Nc2ncnc3ccc(-c4cnccc4F)cc23)c1F [compound 66, N-(2,4-difluoro-3-(6-(4-fluoropyridin-3-yl)quinazolin-4-ylamino)phenyl)propane-1-sulfonamide] | < 300 | < 300 | < 300 | > 3000 |  | < 2000 | > 3000 |
| CCCS(=O)(=O)Nc1ccc(F)c(Nc2ncnc3ccc(-c4cncc(F)c4)cc23)c1F [compound 46, N-(2,4-difluoro-3-(6-(5-fluoropyridin-3-yl)quinazolin-4-ylamino)phenyl)propane-1-sulfonamide] | < 300 | < 300 | < 300 | > 3000 |  | < 2000 | > 3000 |
| CCCS(=O)(=O)Nc1ccc(F)c(Nc2ncnc3ccc(-c4cccc(OCCN(C)C)n4)cc23)c1F [compound 39, N-(3-(6-(6-(2-(dimethylamino)ethoxy)-pyridin-2-yl)quinazolin-4-ylamino)-2,4-difluorophenyl)propane-1-sulfonamide] | < 300 | < 300 | 1000 to 10000 | > 3000 |  | < 2000 | > 3000 |
| CCCS(=O)(=O)Nc1ccc(F)c(Nc2ccnc3ccc(-c4cccnc4F)cc23)c1F [compound 13, N-(2,4-difluoro-3-(6-(2-fluoropyridin-3-yl)-quinolin-4-ylamino)phenyl)propane-1-sulfonamide] | < 300 | < 300 | < 300 | > 3000 |  | < 2000 | > 3000 |
| CCCS(=O)(=O)Nc1ccc(F)c(Nc2ncnc3ccc(-c4cccc(C#N)n4)cc23)c1F [compound 63, N-(3-(6-(6-cyanopyridin-2-yl)quinazolin-4-ylamino)-2,4-difluorophenyl)propane-1-sulfonamide] | < 300 | < 300 | < 300 | > 3000 | 300 to 1000 | < 2000 |  |
| CCCS(=O)(=O)Nc1ccc(F)c(Nc2ncnc3ccc(-c4cnc(OC)c([N+](=O)[O-])c4)cc23)c1F [compound 58, N-(2,4-difluoro-3-(6-(6-methoxy-5-nitropyridin-3-yl)quinazolin-4-ylamino)phenyl)propane-1-sulfonamide] | < 300 | < 300 | < 300 | > 3000 |  | < 2000 | > 3000 |
| CCCS(=O)(=O)Nc1ccc(F)c(C(=O)c2ncnc3ccc(-c4cccnc4F)cc23)c1F [compound 48, N-(2,4-difluoro-3-(6-(2-fluoropyridin-3-yl)quinazoline-4-carbonyl)phenyl)propane-1-sulfonamide] | < 300 | < 300 | < 300 | > 3000 |  |  | > 3000 |
| CCCS(=O)(=O)Nc1ccc(F)c(Nc2ncnc3ccc(-c4cn[nH]c4)cc23)c1F [compound 4, N-(3-(6-(1H-pyrazol-4-yl)quinazolin-4-ylamino)-2,4-difluorophenyl)propane-1-sulfonamide] | < 300 | < 300 | < 300 | > 3000 | 300 to 1000 |  |  |
| CCCS(=O)(=O)Nc1ccc(F)c(Nc2ncnc3ccc(-c4cnc(N(C)C)nc4)cc23)c1F [compound 51, N-(3-(6-(2-(dimethylamino)pyrimidin-5-yl)quinazolin-4-ylamino)-2,4-difluorophenyl)propane-1-sulfonamide] | 300 to 1000 | 300 to 1000 | 1000 to 10000 |  |  |  |  |
| CCCS(=O)(=O)Nc1ccc(F)c(Nc2ncnc3ccc(-c4cccnc4F)cc23)c1Cl [compound 9, N-(2-chloro-4-fluoro-3-(6-(2-fluoropyridin-3-yl)quinazolin-4-ylamino)phenyl)propane-1-sulfonamide] | 1000 to 10000 | 1000 to 10000 | 1000 to 10000 |  |  |  |  |
| CCCS(=O)(=O)Nc1ccc(F)c(Nc2ncnc3ccc(-c4ccc(N(C)C)nc4)cc23)c1F [compound 54, N-(3-(6-(6-(dimethylamino)pyridin-3-yl)quinazolin-4-ylamino)-2,4-difluorophenyl)propane-1-sulfonamide] | 300 to 1000 | 300 to 1000 | 300 to 1000 |  |  |  |  |
